In PubChem BioAssay AID1963432 (Molecular Pharmacology Branch, DTP, NCI, 2024):

Tested on: SYO-1 complex spheroid growth, percent test/control
Assay: Anticancer human tumor SYO-1 cell line growth inhibition [Asc];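 further: compound exposure lasted 7 days after spheroids grew 3 days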;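 on viability, T/C: 100% = DMSO vehicle control viability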
Details: for IC50: curve of first compound; for viability, T/C: stronger effect = lower value; active means viability on the fitted dose curve at most 10% of control; inactive means the rest
Protocol: Multicellular complex tumor spheroid response to apoptosis pathway targeting inhibitors Alrizomadlin, Pelcitoclax, and Dasminapant in combination with a variety of drugs and investigational agents in selected tumor cell lines
The MDM2 inhibitor alrizomadlin, the Bcl-2/Bcl-xL inhibitor pelcitoclax, and the IAPs inhibitor dasminapant were evaluated both individually and in combination with standard of care and investigational anticancer small molecules within a complex spheroid model of solid tumors. . Complex spheroids include a stromal component modeled by human endothelial cells (HUVEC) and fibroblasts modeled by human mesenchymal stem cells (MSCs). The concentration ranges selected for each drug and investigational agent were based upon clinically achievable concentrations if the clinical Cmax of the agent was known.
Compounds. The drugs and investigational agents: alrizomadlin (APG-115; NSC831270), pelcitoclax (APG-1252; NSC835773), dasminapant (APG-1387;NSC834197), TAK-243 (NSC785004), copanlisib (NSC809693), olaparib (NSC753686), talazoparib (NSC767125), cobimetinib (NSC 768068), eltanexor (KPT-8602, NSC 794443), abemaciclib (NSC 768073), sotorasib (NSC818433), adagrasib (NSC 831453), MRTX-1133 (NSC 836407), Iadademestat (ORY1001, NSC 806812), and RMC-4630 (NSC839698), were obtained from the NCI Developmental Therapeutics Program Chemical Repository. The FDA-approved anticancer drug set is available from the Developmental Therapeutics Program at https://dtp.cancer.gov/organization/dscb/obtaining/available plates.htm. […] The stock solutions were prepared in dimethyl sulfoxide (DMSO, Sigma-Aldrich, St. Louis, MO, cat. D2650) at 800-fold the tested concentration and stored at -70 degrees C prior to their use. All drugs and investigational agents were tested over a range starting from a high concentration at or near the clinical Cmax and decreasing in half-log increments. If the clinical Cmax for an agent had not been determined, the highest concentration tested was 10 microM.
The patient-derived cancer (PDC) cell lines include five colon adenocarcinomas: 186277-243-T-J2-PDC, 616215-338-R-J1-PDC, 439559-082-T-J2-PDC, 463943-066-T-J2-PDC, and 519858-162-T-J1-PDC; three pancreatic carcinomas: 323965-272-R-J2-PDC, 521955-158-R6-J3-PDC, and 521955-158-R2-J5-PDC; two uterine sarcomas: 327498-152-R-J2-PDC and 993429-296-R-J1-PDC; two rhabdomyosarcomas: 755483-174-R-J1-PDC and 772245-204-R-J1-PDC; two soft tissue sarcomas: 126254-015-R-J1-PDC and 494315-158-R-J1-PDC; two malignant fibrous histiocytomas: 317291-083-R-J1-PDC and 596521-263-R-J1-PDC; two breast carcinomas: 171881-019-R-J1-PDC and 885512-296-R-J2-PDC; and one ovarian carcinoma: 6556581-035-R-J-PDC were obtained from the NCI PDMR, (https://pdmr.cancer.gov). The established cell lines HSSY-2 synovial sarcoma (RRID:CVCL 8719), SYO-1 synovial sarcoma (RRID:CVCL_7146), MPNST malignant peripheral neural sheath tumor were obtained from the Sloan Kettering Institute. The following established cell lines were purchased from the American Type Culture Collection (ATCC, Manassas, VA), Sor the received from the NCI repository:, PANC-1 pancreatic carcinoma (CRL-1469, RRID:CVCL_0480), OVCAR-5 ovarian carcinoma (RRID:CVCL_1628), OVCAR-8 ovarian carcinoma (RRID:CVCL_1629), , MCF-7 breast carcinoma (CRL-12584, RRID:CVCL_0031), MDA-MB-231 breast carcinoma (CRL-12532, RRID:CVCL_0062), NCI-H1876 small cell lung carcinoma (CRL-5902, RRID:CVCL_1503), NCI-H510A small cell lung carcinoma (HTB-184, RRID:CVCL_1565), NCI-H1417 (CRL-5869, RRID:CVCL_1469), and NCI-H196 small cell lung carcinoma (CRL-5823, RRID:CVCL_1509). Dr. Peter Houghton (Greehey Children's Cancer Research Institute, University of Texas Health Science Center, San Antonio, TX) provided Rh-18 rhabdomyosarcoma (RRID:CVCL_1659). Pooled donor human umbilical vein endothelial cells (HUVEC, Lonza, cat. CC-2519) and human mesenchymal stem cells (hMSC, Lonza, cat. PT-2501) were purchased from Lonza (Walkersville, MD).
Cell Culture. […]

[1] = second compound 0.00949 µM, first compound 0.00316 µM
[2] = second compound 0.00949 µM, first compound 0.01 µM
[3] = second compound 0.00949 µM, first compound 0.0316 µM
[4] = second compound 0.00949 µM, first compound 0.1 µM
[5] = second compound 0.00949 µM, first compound 0.316 µM
[6] = second compound 0.00949 µM, first compound 1 µM
[7] = second compound 0.03 µM, first compound 0.00316 µM
[8] = second compound 0.03 µM, first compound 0.01 µM
[9] = second compound 0.03 µM, first compound 0.0316 µM
[10] = second compound 0.03 µM, first compound 0.1 µM
[11] = second compound 0.03 µM, first compound 0.316 µM
[12] = second compound 0.03 µM, first compound 1 µM
[13] = second compound 0.0949 µM, first compound 0.00316 µM
[14] = second compound 0.0949 µM, first compound 0.01 µM
[15] = second compound 0.0949 µM, first compound 0.0316 µM
[16] = second compound 0.0949 µM, first compound 0.1 µM
[17] = second compound 0.0949 µM, first compound 0.316 µM
[18] = second compound 0.0949 µM, first compound 1 µM
[19] = second compound 0.3 µM, first compound 0.00316 µM
[20] = second compound 0.3 µM, first compound 0.01 µM
[21] = second compound 0.3 µM, first compound 0.0316 µM
[22] = second compound 0.3 µM, first compound 0.1 µM
[23] = second compound 0.3 µM, first compound 0.316 µM
[24] = second compound 0.3 µM, first compound 1 µM
[25] = second compound 0.949 µM, first compound 0.00316 µM
[26] = second compound 0.949 µM, first compound 0.01 µM
[27] = second compound 0.949 µM, first compound 0.0316 µM
[28] = second compound 0.949 µM, first compound 0.1 µM
[29] = second compound 0.949 µM, first compound 0.316 µM
[30] = second compound 0.949 µM, first compound 1 µM
[31] = second compound 3 µM, first compound 0.00316 µM
[32] = second compound 3 µM, first compound 0.01 µM
[33] = second compound 3 µM, first compound 0.0316 µM
[34] = second compound 3 µM, first compound 0.1 µM
[35] = second compound 3 µM, first compound 0.316 µM
[36] = second compound 3 µM, first compound 1 µM

CCN1CCN(Cc2ccc(Nc3ncc(F)c(-c4cc(F)c5nc(C)n(C(C)C)c5c4)n3)nc2)CC1 + CCN1C(C(=O)NC23CCC(C(=O)O)(CC2)CC3)C(c2cccc(Cl)c2F)C2(C(=O)Nc3cc(Cl)ccc32)C12CCCCC2
inactive: viability, T/C [1] 105% | viability, T/C [2] 105% | viability, T/C [3] 116% | viability, T/C [4] 119% | viability, T/C [5] 121% | viability, T/C [6] 102% | viability, T/C [7] 98.8% | viability, T/C [8] 101% | viability, T/C [9] 98.9% | viability, T/C [10] 117% | viability, T/C [11] 106% | viability, T/C [12] 73.1% | viability, T/C [13] 87% | viability, T/C [14] 85% | viability, T/C [15] 87.5% | viability, T/C [16] 88.6% | viability, T/C [17] 63% | viability, T/C [18] 19.5% | viability, T/C [19] 25.1% | viability, T/C [20] 20.8% | viability, T/C [21] 20.6% | viability, T/C [22] 16.5%
< 0.00316 µM: IC50 (second compound 0.3 µM) | IC50 (second compound 0.949 µM) | IC50 (second compound 3 µM)
0.446 µM: IC50 (second compound 0.0949 µM)
active: viability, T/C [23] 9.85% | viability, T/C [24] 2.81% | viability, T/C [25] 2.61% | viability, T/C [26] 2.87% | viability, T/C [27] 2.98% | viability, T/C [28] 4.27% | viability, T/C [29] 2.21% | viability, T/C [30] 1.42% | viability, T/C [31] 2.07% | viability, T/C [32] 1.29% | viability, T/C [33] 2.77% | viability, T/C [34] 1.88% | viability, T/C [35] 3.26% | viability, T/C [36] 2.37%
> 1 µM: IC50 (second compound 0.00949 µM) | IC50 (second compound 0.03 µM)

O=C(c1ccc(F)c(F)c1Nc1ccc(I)cc1F)N1CC(O)([C@@H]2CCCCN2)C1 + CCN1C(C(=O)NC23CCC(C(=O)O)(CC2)CC3)C(c2cccc(Cl)c2F)C2(C(=O)Nc3cc(Cl)ccc32)C12CCCCC2
0.823 µM: IC50 (second compound 0.0949 µM)
inactive: viability, T/C [1] 115% | viability, T/C [2] 103% | viability, T/C [3] 99.9% | viability, T/C [4] 111% | viability, T/C [5] 107% | viability, T/C [6] 119% | viability, T/C [7] 96.5% | viability, T/C [8] 99.5% | viability, T/C [9] 102% | viability, T/C [10] 116% | viability, T/C [11] 116% | viability, T/C [12] 103% | viability, T/C [13] 83.5% | viability, T/C [14] 93.1% | viability, T/C [15] 94.5% | viability, T/C [16] 95% | viability, T/C [17] 93.5% | viability, T/C [18] 41.4% | viability, T/C [19] 30.4% | viability, T/C [20] 23.9% | viability, T/C [21] 24.8% | viability, T/C [22] 21.6% | viability, T/C [23] 10.2%
< 0.00316 µM: IC50 (second compound 0.3 µM) | IC50 (second compound 0.949 µM) | IC50 (second compound 3 µM)
> 1 µM: IC50 (second compound 0.00949 µM) | IC50 (second compound 0.03 µM)
active: viability, T/C [24] 0.94% | viability, T/C [25] 5.46% | viability, T/C [26] 5.3% | viability, T/C [27] 3.35% | viability, T/C [28] 1.43% | viability, T/C [29] 0.7% | viability, T/C [30] 0.15% | viability, T/C [31] 1.44% | viability, T/C [32] 2.44% | viability, T/C [33] 1.3% | viability, T/C [34] 0.81% | viability, T/C [35] 0.22% | viability, T/C [36] 0.42%
